In paper PMC12629174, “Exploring Bioactive Metabolites From Fusarium falciforme and Aspergillus terreus Isolated From Protease‐Rich Fruits: Antifungal, Antitrypanosomal, and Enzymatic Inhibitory Activities” (Chemistry & Biodiversity, 2025):
Where two headings read alike, the source gives them in different places.

Assays:
papain [1] = biological target: T1, papain (Carica papaya, UniProt P00784); test: fluorimetric papain assay with ZFR-MCA substrate; format: biochemical
T1 sequence (P00784 134-345): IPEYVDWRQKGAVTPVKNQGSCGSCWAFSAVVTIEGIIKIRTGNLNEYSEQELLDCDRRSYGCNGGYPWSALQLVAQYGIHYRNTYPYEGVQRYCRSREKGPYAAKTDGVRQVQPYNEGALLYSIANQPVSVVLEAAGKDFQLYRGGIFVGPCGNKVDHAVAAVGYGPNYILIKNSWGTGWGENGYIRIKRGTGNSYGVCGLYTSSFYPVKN

papain [2] = biological target: T1, papain; test: fluorimetric papain assay with ZFR-MCA; titration of papain by the irreversible inhibitor (positive control); format: biochemical; settings: read-out: % inhibition at 1 μM (25 nM in the well)

IC50 (papain [1]; read-out: IC50) [µM] | Structure (SMILES) | other results
– | COC(=O)[C@]1(Cc2ccc(O)c(CC=C(C)C)c2)OC(=O)C(O)=C1c1ccc(O)cc1 [compound 3, butyrolactone I] | IC50 (papain [1]): 6.24 µM
9.38 | CC(=C\C(=O)O)/C=C(\C)C[C@H](C)CCCC[C@H]1OC(=O)[C@@H]1CO [compound 1, hymeglusin] | –
– | CC(C)C[C@H](NC(=O)C1OC1C(=O)O)C(=O)NCCCCNC(=N)N (stereo partly drawn) [E-64, 1‐[L‐N‐(trans‐epoxysuccinyl)leucyl] amino‐4‐guanidinobutane] | inhibition at 1 µM (papain [2]): 90%
28.6 | CC(=C\C(=O)O)/C=C(\C)C[C@H](C)CCCC[C@@H](O)C(CO)C(=O)O (stereo partly shown) [compound 2, fusaridioic acid A] | –
